Reference: ChEMBL document CHEMBL1144071, “Elisabatins A and B: new amphilectane-type diterpenes from the West Indian sea whip Pseudopterogorgia elisabethae” (1999)
The source made the active and inactive calls. No cut-off for these calls is given here.

Assays:
[1] = system: Human immunodeficiency virus; experiment: Antiviral activity against HIV by NCI test; format: functional, organism-based
[2] = system: Mycobacterium tuberculosis; experiment: Antimycobacterial activity against Mycobacterium tuberculosis at 12.5 ug/mL; format: functional

Compound: CC(C)=C[C@@H]1C[C@H](C)c2c(O)cc(C)c3c2C1=C(C)C(=O)C3=O [ELISABATIN A]
- Activity [1]: inactive
- Activity [2]: 21%
